Values joined by “and” are separate entries in the source; they are usually repeats but may differ in a detail not shown here. Identical values can stand only once. Like-named read-outs stand apart in the source and are kept apart here.
Key:
guinea pig lung slices = assay: Methacholine-induced airway constriction in guinea pig lung slices; assay type: cell-based; conditions: for EC50: read-out: MCh EC50
Method: All curve fits were generated using the software program GraphPad Prism. Data are represented as mean ± SEM obtained from 6 guinea pigs.
(§1) Precision-cut lung slices were prepared as described previously ([61], [62]). A 3% solution of low melting-point agarose (Gerbu Biotechnik GmbH) in ultrapure water was prepared by heating it a microwave until fully dissolved. […] After filling, the lungs were covered with ice for 30 minutes to solidify the agarose for slicing. […] Lung slices were cut at a thickness of 500 μm and washed several times with slicing buffer to remove debris and washout the isoproterenol. Slices were incubated overnight in a 60 mm dish in sterile incubation buffer: MEM composed of lung slice buffer supplemented with 0.5 mM sodium pyruvate, 1 mM glutamine (Gibco), MEM-amino acids mixture (1:50), MEM-vitamins mixture (1:100; Gibco), and penicillin-streptomycin (1:100; Gibco), pH = 7.2, at 37°C in a CO2- and humidity-controlled atmosphere.
(§2) After washing the slices in medium, individual guinea pig lung slices were mechanically maintained with a Teflon ring with an inner diameter of 7 mm and covered with 1 mL of incubation buffer. […] Image acquisition software (NIS-Elements, Nikon) was used to quantify airway luminal area. Images of the airways were acquired every 2 seconds during the whole course of the experiment, starting 2 minutes before the addition of any agent to allow for baseline measurements of the airway caliber. For each methacholine or ovalbumin concentration, the maximal airway constriction was expressed as percentage of the initial (baseline) airway luminal area and plotted against that concentration.

[1] = system: lung slices obtained from ovalbumin-sensitized guinea pigs; assay: Ovalbumin-induced airway constriction in lung slices from ovalbumin-sensitized guinea pigs; assay type: cell-based, guinea pig; parameters: key to OVA-induced airway constriction response (Figure 6): max constriction as % of initial (baseline) airway luminal area; conditions: 0.1 µM Fenoterol + 25 µM Cmpd-6, Exp1-5
Description: All curve fits were generated using the software program GraphPad Prism. Data are represented as mean ± SEM of 4–5 guinea pigs (see Table 2 for statistical analyses).
Outbred, male, specified pathogen-free Dunkin Hartley guinea pigs (Charles River Laboratory) weighing 200 to 400 g were used. The animals were housed in pairs under a 12-hour light/dark cycle in a temperature- and humidity-controlled room with food and tap water ad libitum. For studies in the guinea pig model of allergic asthma, animals were actively IgE-sensitized to ovalbumin by injecting a suspension containing 100 μg/mL ovalbumin and 100 mg/mL Al(OH)3 in saline. Each animal was injected with 1.0 mL of suspension: 0.5 mL was injected i.p. and 0.5 mL was divided over 7 s.c. sites close to lymph nodes in the neck, paws, and lumbar regions ([24]). Animals were euthanized at least 4 weeks after sensitization.
as §1, §2

human lung slices = assay: Methacholine-induced airway constriction in human lung slices; assay type: cell-based; parameters: key to MCh-induced airway constriction response (Figure 7): % of initial airway luminal area; conditions: for MCh-induced airway constriction response (Figure 7): 1 µM Fenoterol + 25 µM Cmpd-6, donor 1-4
Description: All curve fits were generated using the software program GraphPad Prism. Data are represented as mean ± SEM of 4 human donors (see Table 3 for statistical analyses).
Precision-cut human lung slices were purchased from AnaBios and stored in a liquid nitrogen tank. Lung tissue was obtained postmortem and consent for research was obtained by AnaBios for all donors. Characteristics of the donors of the lung tissue are shown in Supplemental Table 2. Slices were rapidly thawed following instructions from AnaBios.
After washing, individual human lung slices were mechanically maintained with a Teflon ring with an inner diameter of 7 mm and covered with 1 mL of incubation buffer. […] Image acquisition software (NIS-Elements, Nikon) was used to quantify airway luminal area. […] Airway constriction in response to each methacholine concentration was expressed as percentage of the initial airway luminal area.

guinea pig β2AR = guinea pig β2AR (Cavia porcellus, UniProt Q8K4Z4); assay: 125I-CYP radioligand competition binding, guinea pig β2AR
Chain of guinea pig β2AR (Q8K4Z4 whole entry): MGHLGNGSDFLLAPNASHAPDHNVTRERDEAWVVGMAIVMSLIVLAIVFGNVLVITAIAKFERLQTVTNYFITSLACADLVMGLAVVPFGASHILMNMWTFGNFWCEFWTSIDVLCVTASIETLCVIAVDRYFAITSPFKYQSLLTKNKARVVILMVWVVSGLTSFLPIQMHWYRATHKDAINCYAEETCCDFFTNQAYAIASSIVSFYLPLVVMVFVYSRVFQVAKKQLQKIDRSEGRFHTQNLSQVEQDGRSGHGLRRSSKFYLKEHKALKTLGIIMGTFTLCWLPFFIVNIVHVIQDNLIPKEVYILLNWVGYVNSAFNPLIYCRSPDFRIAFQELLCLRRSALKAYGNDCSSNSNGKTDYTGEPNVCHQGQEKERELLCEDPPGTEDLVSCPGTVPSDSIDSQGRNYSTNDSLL

COc1ccc(Sc2ccc(S(=O)(=O)N(C)C(C)C)cc2C(=O)N[C@H](CC(N)=O)Cc2ccc(C(C)(C)C)cc2)cc1 [Cmpd-6]
MCh Emax (guinea pig lung slices; 1 μM Fenoterol + 25 μM Cmpd-6): 112.3 ± 9.5%
EC50 (guinea pig lung slices; 1 μM Fenoterol + 25 μM Cmpd-6): 590 ± 90 nM
MCh Emax (guinea pig lung slices; 10 μM Fenoterol + 25 μM Cmpd-6): 100.9 ± 3.2%
EC50 (guinea pig lung slices; 10 μM Fenoterol + 25 μM Cmpd-6): 980 ± 120 nM
Augmentation of airway smooth muscle responsiveness to fenoterol (guinea pig lung slices; 25 μM Cmpd-6): 10 fold
MCh Emax (guinea pig lung slices; 25 μM Cmpd-6 alone): 100.0 ± 2.0%
EC50 (guinea pig lung slices; 25 μM Cmpd-6 alone): 280 ± 50 nM
OVA-induced airway constriction response (Figure 6) ([1]; [OVA] 0.001 ng/ml): 101.6 and 100.0 and 98.0 and 99.2 and 107.5
OVA-induced airway constriction response (Figure 6) ([1]; [OVA] 0.01 ng/ml): 101.3 and 100.0 and 95.9 and 96.7 and 107.5
OVA-induced airway constriction response (Figure 6) ([1]; [OVA] 0.1 ng/ml): 101.6 and 100.0 and 97.5 and 97.8 and 107.5
OVA-induced airway constriction response (Figure 6) ([1]; [OVA] 1 ng/ml): 101.6 and 99.9 and 95.4 and 99.0 and 107.5
OVA-induced airway constriction response (Figure 6) ([1]; [OVA] 10 ng/ml): 101.3 and 109.6 and 95.4 and 102.0 and 106.4
OVA-induced airway constriction response (Figure 6) ([1]; [OVA] 100 ng/ml): 102.3 and 105.5 and 95.6 and 99.3 and 107.0
OVA-induced airway constriction response (Figure 6) ([1]; [OVA] 1000 ng/ml): 102.2 and 108.2 and 105.1 and 101.8
OVA-induced airway constriction response (Figure 6) ([1]; [OVA] 10000 ng/ml): 101.8 and 96.8 and 105.1 and 98.0 and 79.6
OVA-induced airway constriction response (Figure 6) ([1]; [OVA] 100000 ng/ml): 101.6 and 81.6 and 100.1 and 89.5 and 64.4
OVA-induced airway constriction response (Figure 6) ([1]; [OVA] 1000000 ng/ml): 101.0 and 77.3 and 94.7 and 90.3 and 74.1
MCh Emax (human lung slices; 1 μM Fenoterol + 25 μM Cmpd-6): 26.5 ± 4.4^A %
MCh pD2 (human lung slices; 1 μM Fenoterol + 25 μM Cmpd-6): 5.52 ± 0.24^B –log M
MCh-induced airway constriction response (Figure 7) (human lung slices; -Log [MCh] 3.5): 81.9 and 70.9 and 77.9 and 77.7
MCh-induced airway constriction response (Figure 7) (human lung slices; -Log [MCh] 4): 85.4 and 70.2 and 85.0 and 81
MCh-induced airway constriction response (Figure 7) (human lung slices; -Log [MCh] 4.5): 87.4 and 88.5 and 81.1 and 82.0
MCh-induced airway constriction response (Figure 7) (human lung slices; -Log [MCh] 5): 88.4 and 90.1 and 84.2 and 85.0
MCh-induced airway constriction response (Figure 7) (human lung slices; -Log [MCh] 5.5): 89.6 and 91.5 and 87.5 and 90.7
MCh-induced airway constriction response (Figure 7) (human lung slices; -Log [MCh] 6): 90.7 and 94.3 and 90.0 and 93.1
MCh-induced airway constriction response (Figure 7) (human lung slices; -Log [MCh] 6.5): 93.1 and 102.4 and 95.5 and 94.0
MCh-induced airway constriction response (Figure 7) (human lung slices; -Log [MCh] 7): 93.8 and 102.2 and 98.0 and 97.4
MCh-induced airway constriction response (Figure 7) (human lung slices; -Log [MCh] 7.5): 95.1 and 104.8 and 98.8 and 98.9
MCh-induced airway constriction response (Figure 7) (human lung slices; -Log [MCh] 8): 99.2 and 103.1 and 100.8 and 101.6
MCh-induced airway constriction response (Figure 7) (human lung slices; -Log [MCh] 8.5): 96.5 and 109.1 and 101.7 and 103.0
MCh-induced airway constriction response (Figure 7) (human lung slices; -Log [MCh] 9): 95.6 and 107.7 and 98.0 and 98.3
Enhancement of the β2-agonist responsiveness (human lung slices; 25 μM Cmpd-6 + 1 μM fenoterol vs 10 μM fenoterol): 10 fold
125I-CYP binding, ISO competition curve (Figure 4B) (guinea pig β2AR; Cmpd-6 [1 uM], Log [ISO] (M) -4.49485): 1.389 and 1.151 and 1.419 and 1.486 and 1.375
125I-CYP binding, ISO competition curve (Figure 4B) (guinea pig β2AR; Cmpd-6 [1 uM], Log [ISO] (M) -5.69897): 11.9867 and 9.239 and 16.2618 and 13.198 and 14.4523
125I-CYP binding, ISO competition curve (Figure 4B) (guinea pig β2AR; Cmpd-6 [1 uM], Log [ISO] (M) -6.90309): 60.3981 and 44.4601 and 52.8751 and 61.5704 and 63.6634
125I-CYP binding, ISO competition curve (Figure 4B) (guinea pig β2AR; Cmpd-6 [1 uM], Log [ISO] (M) -7.50515): 85.4929 and 72.4739 and 91.4188 and 87.166 and 89.8825
125I-CYP binding, ISO competition curve (Figure 4B) (guinea pig β2AR; Cmpd-6 [1 uM], Log [ISO] (M) -8.70927): 98.0858 and 100.299 and 96.4593 and 97.8108 and 99.3392
125I-CYP binding, ISO competition curve (Figure 4B) (guinea pig β2AR; Cmpd-6 [1 uM], Log [ISO] (M) -9.31133): 102.219 and 97.3579 and 98.2032 and 100.895 and 101.354
125I-CYP binding, ISO competition curve (Figure 4B) (guinea pig β2AR; Cmpd-6 [1 uM], Log [ISO] (M) -9.91339): 101.18 and 98.3743 and 98.3138 and 101.016 and 101.111
125I-CYP binding, ISO competition curve (Figure 4B) (guinea pig β2AR; Cmpd-6 [1 uM], Log [ISO] (M) -11 (DMSO)): 99.0003 and 102.579 and 98.6421 and 100.222 and 97.6049
125I-CYP binding, ISO competition curve (Figure 4B) (guinea pig β2AR; Cmpd-6 [5 uM], Log [ISO] (M) -7.50515): 44.1147 and 80.7404 and 64.2013 and 72.7308 and 72.5102
